Test results from paper PMC6696115, “Characterization of Antimicrobial, Antioxidant, and Leishmanicidal Activities of Schiff Base Derivatives of 4-Aminoantipyrine” (Molecules, 2019).
Converted amounts (≈) assume the structure as drawn.

What was measured:
[1] = test system: S. cerevisiae wild type (BY4741); assay: growth inhibition (OD600) of wild-type yeast, oxidative effect; type: cell-based, Saccharomyces cerevisiae
Procedure: (§1) Next, we wanted to evaluate the oxidative activity. To do this, drop test assays were performed with wild-type (W303 and BY4741 backgrounds) and sod1 (BY4741 background) yeast cells in the presence of 200 µg/mL of the analyzed Schiff bases (Figure 3). The SOD1 gene encodes superoxide dismutase 1, an enzyme with a major role in detoxifying ROS species generated during metabolism or because of environmental exposure. sod1 mutant cells are unprotected against oxidative agents, decreasing survival in their presence.
(A) Drop test of serial dilution of yeast cell cultures (wild type from genetic background W303, wild type from genetic background BY4741, and sod1 mutant from genetic background BY4741) exposed to Schiff bases at 200 µg/mL. A control without drug and with 2% DMSO are included.
(§2) The bacterial inoculum was prepared by emulsifying overnight colonies from an agar medium in broth (Mueller–Hinton broth). The suspensions were adjusted to a final organism density of 5 × 10^5 colony former units (cfu)/mL. […] The emulsifying of A. niger cultures was done by pouring 5 mL of saline and 0.1% of polysorbate 80 over the Petri dishes. Then, 100 µL of this suspension were diluted in 5 mL of saline and adjusted to an optical density of 0.1 at 530 nm. For S. cerevisiae, fresh exponential YPAD (yeast extract 1%, peptone 2%, adenine 0.004%, […]) cultures were adjusted to an optical density of 0.5 at 600 nm, and then diluted to the equivalent of 1 × 10^4 cells/mL (10^−3 dilution). Stock solutions of Schiff bases were prepared by dissolving them in DMSO at 10 mg/mL. […] The range of concentrations used was empirically selected for each organisms and the Schiff base. Drug sensitivities were assayed by serial dilutions in 96-well plates as previously described. A row with media and cells but without drug was the positive control. The blank was done by preparing a row with media and drugs, but without cells. Plates were fitted with a tight lid before incubation to prevent desiccation. […] The minimum bactericidal concentration (MBC) and fungicidal concentration (MFC) were determined by spreading 100 µL of culture from each well onto a plate (Mueller–Hinton agar for bacteria, Sabouraud dextrose agar for fungi except S. cerevisiae, and YPAD for S. cerevisiae).

RAW 264.7 cells = assay: cell viability, MTT dye assay; type: cell-based, murine; conditions: RAW 264.7, exposure to 400 µM, 48 h
Procedure: The specificity and selectivity for the pathogen target is a key point for any potential drug.
The medium was renewed once a week. The viability was determined using MTT (thiazolyl blue tetrazolium bromide) dye assay as described previously for leishmanicidal activity assessment, with some variations. Here, 5 × 10^4 cells/well in a final volume of 100 µL were deposited into a 96-well plate in triplicate. Saponin (2 and 4 mg/mL) and untreated cells were used as the positive control and negative control, respectively. Schiff bases were dissolved in DMSO to obtain different serial concentrations (0.01–2000 µM). […] Cells were pelleted by centrifugation at 4400 rpm for 10 minutes and the media was removed. Next, 100 µL/well of DMSO were added and the absorbance at 570 nm was recorded. A reference wavelength of 630 nm was used for background subtraction.

[2] = DPPH radical scavenging assay; type: biochemical; conditions: statement in words
Procedure: This was used immediately. The experimental procedure was adapted from the literature. Briefly, in a 96-well plate, 100 µL of solution of DPPH (2, 2-diphenyl-1-picrylhydrazyl) radical (0.2 mM in methanol) was added to 100 µL of methanolic solutions of 3a–j, 4, or 5, prepared as serial two-fold dilutions from the stock solution. Standards were also prepared in the same concentrations.
The percentage of DPPH scavenging was then calculated by using the following formula: % DPPH scavenging=100∗Asample+DPPH−Asample blank/ADPPH−Asolvent

[3] = test system: S. cerevisiae (backgrounds W303 and BY4741); assay: antimicrobial serial microdilution, S. cerevisiae; type: cell-based, Saccharomyces cerevisiae; conditions: Saccharomyces cerevisiae; serial microdilution, 35 °C, 48 h; read-out: MIC S. cerevisiae
Procedure: (§3) The in vitro antifungal and antimicrobial activities were determined by testing the Schiff bases against the fungi Saccharomyces cerevisiae, Candida albicans, and Aspergillus niger and the bacteria Staphylococcus aureus, Enterococcus faecalis (Gram-positive), Pseudomonas aeruginosa, and Escherichia coli (Gram-negative).
as §2

[4] = test system: S. cerevisiae sod1 mutant cells (background BY4741); assay: drop test, sod1 mutant yeast; type: cell-based, Saccharomyces cerevisiae; conditions: 200 µg/mL, 48 h, 25 °C, compared to control
Procedure: as §1, with “presence. […] Also, wild-type cells are shown as control, unaffected by the Schiff bases.” for “presence.”
(§4) For the drop test with S. cerevisiae, wild-type strain (background W303), and wild type and sod1 mutant cells (background BY4741) were grown overnight in YPAD media until an optical density of 0.5 at 600 nm was reached (equivalent to 1 × 10^7 cells/mL). Three serial dilutions were prepared and 5 µL of each was spotted onto a plate (approximately 1 × 10^5, 1 × 10^4, 1 × 10^3, and 1 × 10^2 cells/spot). YPAD plates were supplemented with 200 µg/mL of each Schiff base, and one plate supplemented with 2% DMSO and one plate with YPAD without any drug were used as controls. Plates were incubated at 25 °C for 24, 48, and 72 h.

[5] = test system: Enterococcus faecalis ATCC 29212; assay: antimicrobial serial microdilution, E. faecalis; type: cell-based; conditions: Enterococcus faecalis, ATCC29212; serial microdilution, 37 °C, 24 h
Procedure: as §3, §2

[6] = test system: S. cerevisiae wild-type (W303 and BY4741 backgrounds); assay: drop test, wild-type yeast; type: cell-based, Saccharomyces cerevisiae; conditions: 200 µg/mL, 48 h, 25 °C
Procedure: Since the Schiff bases have a limited solubility in dimethyl sulfoxide (DMSO), first, we tested the toxicity of DMSO against the selected microorganism. […] Wild-type cells from W303 background seem to be more resistant, and sensitivity is observed at around 4% DMSO.
as §1, with “presence. […] Also, wild-type cells are shown as control, unaffected by the Schiff bases.” for “presence.”
as §4

[7] = test system: Escherichia coli ATCC 25922; assay: antimicrobial serial microdilution, E. coli; type: cell-based; conditions: serial microdilution, 37 °C, 24 h
Procedure: as §3, §2

[8] = test system: Candida albicans ATCC 10231; assay: antimicrobial serial microdilution, C. albicans; type: cell-based; conditions: serial microdilution, 35 °C, 48 h
Procedure: as §3, §2

Q: Which IC50 ([1]; Saccharomyces cerevisiae, unit inferred) does the source give for Cc1c(N=Cc2ccccc2O)c(=O)n(-c2ccccc2)n1C [Compound 3b, 4-(2-Hydroxybenzylideneamino)-1,5-dimethyl-2-phenyl-1H-pyrazol-3(2H)-one] here?
A: 192 µg/mL (≈ 625 µM)

Q: What about the “NIC Wt” value ([1]; unit not given) of the same molecule?
A: 178.0 ± 2.1

Q: What about the “MIC Wt” value ([1]; unit not given, in µg/mL) of the same molecule?
A: 208.2 ± 4.0

Q: And the “% Live Cells” value (RAW 264.7 cells)?
A: 19.3 ± 0.2%

Q: And the “antioxidant activity detected in the DPPH assay” value [2]?
A: no significant antioxidant activity

Q: What about the MIC [3] of the same molecule?
A: > 200 µg/mL

Q: And the “sensitivity of sod1 cells in drop test” value [4]?
A: sensitive

Q: And the MIC [5]?
A: > 200 µg/mL

Q: What about the “effect on wild-type cells in drop test” value [6] of the same molecule?
A: unaffected

Q: And the IC50 ([7]; Escherichia coli, ATCC25922)?
A: 12.1 µg/mL (≈ 39.4 µM)

Q: What about the MIC ([7]; Escherichia coli, ATCC25922) of the same molecule?
A: 49.8 ± 5 µg/mL (≈ 162 µM)

Q: What about the “NIC E. coli” value ([7]; noninhibitory concentration) of the same molecule?
A: 2.8 ± 0.5 µg/mL

Q: What about the IC50 ([8]; Candida albicans, ATCC10231) of the same molecule?
A: 5.8 µg/mL (≈ 18.9 µM)

Q: And the MIC ([8]; Candida albicans, ATCC10231)?
A: 13.2 ± 1.6 µg/mL (≈ 42.9 µM)

Q: And the “NIC C. albicans” value ([8]; noninhibitory concentration)?
A: 3.0 ± 2.2 µg/mL
